# Measurements as given in patent US6465654B2, “Process for preparing 1-substituted, 2-substituted 1H-imidazo[4, 5-c]quinoline-4-amines” (3M Innovative Properties Company, priority 1991, dated 2002).
# Experiments:
# interferon-α = test: Interferon-α induction in human cells, PBM; format: cell-based; conditions: 24 hours
# interferon = test: Interferon induction in mice; format: in vivo; conditions: mouse serum
# Procedure, shortened: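 Mouse serum collected at 1, 2 and 4 h (separate groups), pooled, stored at −70° C, then assayed as for human-cell interferon. Values in α/β reference units/mL against a mouse MU-1-IF standard; "<" marks levels below assay sensitivity.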
smiles,measurement,setting,value
"CC(C)Cn1c(C(O)c2ccccc2)nc2c(N)nc3ccccc3c21 (stereo not drawn) [Example 48, 4-Amino-1-(2-methylpropyl)-α-phenyl-1H-imidazo[4,5-c]quinoline-2-methanol]",Interferon-α induction,interferon-α; dose concentration 0.10 μg/mL,3100 α Reference Units/mL
same,Interferon-α induction,interferon-α; dose concentration 0.50 μg/mL,840 α Reference Units/mL
same,Interferon-α induction,interferon-α; dose concentration 1.0 μg/mL,330 α Reference Units/mL
same,Interferon-α induction,interferon-α; dose concentration 5.0 μg/mL,1300 α Reference Units/mL
same,Interferon induction in mice,"interferon; oral 0.3 mg/kg, 1 hr",<260 Reference Units/mL
same,Interferon induction in mice,"interferon; oral 0.3 mg/kg, 2 hr",<260 Reference Units/mL
same,Interferon induction in mice,"interferon; oral 0.3 mg/kg, 4 hr",<260 Reference Units/mL
same,Interferon induction in mice,"interferon; oral 1 mg/kg, 1 hr",790 Reference Units/mL
same,Interferon induction in mice,"interferon; oral 1 mg/kg, 2 hr",940 Reference Units/mL
same,Interferon induction in mice,"interferon; oral 1 mg/kg, 4 hr",<260 Reference Units/mL
same,Interferon induction in mice,"interferon; oral 3 mg/kg, 1 hr",1600 Reference Units/mL
same,Interferon induction in mice,"interferon; oral 3 mg/kg, 2 hr",1600 Reference Units/mL
same,Interferon induction in mice,"interferon; oral 3 mg/kg, 4 hr",˜510 Reference Units/mL
same,Interferon induction in mice,"interferon; oral 10 mg/kg, 1 hr",2000 Reference Units/mL
same,Interferon induction in mice,"interferon; oral 10 mg/kg, 2 hr",2000 Reference Units/mL
same,Interferon induction in mice,"interferon; oral 10 mg/kg, 4 hr",˜540 Reference Units/mL
same,melting point,,125 to 140 °C
